Patent US5750754A, “Heterocyclic compounds” (Zeneca Limited, priority 1993, dated 1998)
Counter-ions that a name gives are not always drawn. Like-named read-outs stand apart in the source and are kept apart here.

Tests used:
[1] = biological target: T1, human, citrated, platelet-rich plasma (Homo sapiens, UniProt P05106+P08514); assay: Test (a): inhibition of ADP stimulated platelet aggregation (Born); assay type: cell-based; conditions: ADP induced aggregation of human platelet-rich plasma
T1 construct: aggregating human, citrated, platelet-rich plasma; endogenous in cells; host or cells: human platelets in citrated platelet-rich plasma
T1 sequence (P08514 32-887 limits assumed): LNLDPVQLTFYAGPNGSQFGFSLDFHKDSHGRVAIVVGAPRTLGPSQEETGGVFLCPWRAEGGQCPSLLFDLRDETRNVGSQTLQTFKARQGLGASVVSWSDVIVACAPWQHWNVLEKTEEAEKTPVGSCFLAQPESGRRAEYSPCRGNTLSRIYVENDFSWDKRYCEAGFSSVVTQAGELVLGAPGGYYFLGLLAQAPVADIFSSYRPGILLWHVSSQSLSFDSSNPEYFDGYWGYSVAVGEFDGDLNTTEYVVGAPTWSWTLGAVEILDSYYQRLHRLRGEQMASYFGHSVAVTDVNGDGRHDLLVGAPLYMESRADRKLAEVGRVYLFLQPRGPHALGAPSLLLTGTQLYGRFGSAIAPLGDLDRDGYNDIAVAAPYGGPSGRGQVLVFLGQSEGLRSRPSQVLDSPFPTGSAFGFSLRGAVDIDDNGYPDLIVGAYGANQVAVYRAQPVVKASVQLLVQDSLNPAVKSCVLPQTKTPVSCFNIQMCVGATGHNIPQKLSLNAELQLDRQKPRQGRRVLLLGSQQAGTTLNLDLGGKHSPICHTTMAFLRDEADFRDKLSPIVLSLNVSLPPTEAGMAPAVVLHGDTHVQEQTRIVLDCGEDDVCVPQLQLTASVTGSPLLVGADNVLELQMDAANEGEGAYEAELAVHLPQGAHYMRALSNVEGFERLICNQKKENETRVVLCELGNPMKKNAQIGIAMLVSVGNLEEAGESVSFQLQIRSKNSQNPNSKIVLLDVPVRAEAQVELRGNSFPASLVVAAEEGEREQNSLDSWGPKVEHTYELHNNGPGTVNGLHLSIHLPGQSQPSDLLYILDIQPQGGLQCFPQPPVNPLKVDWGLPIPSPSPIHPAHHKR
T1 sequence (P08514 891-1039 limits assumed): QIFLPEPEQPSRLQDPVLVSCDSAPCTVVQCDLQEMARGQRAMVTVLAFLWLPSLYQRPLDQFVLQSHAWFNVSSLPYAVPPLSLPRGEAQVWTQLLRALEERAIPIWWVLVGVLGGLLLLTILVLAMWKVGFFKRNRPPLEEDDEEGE
T1 sequence (P05106 27-788): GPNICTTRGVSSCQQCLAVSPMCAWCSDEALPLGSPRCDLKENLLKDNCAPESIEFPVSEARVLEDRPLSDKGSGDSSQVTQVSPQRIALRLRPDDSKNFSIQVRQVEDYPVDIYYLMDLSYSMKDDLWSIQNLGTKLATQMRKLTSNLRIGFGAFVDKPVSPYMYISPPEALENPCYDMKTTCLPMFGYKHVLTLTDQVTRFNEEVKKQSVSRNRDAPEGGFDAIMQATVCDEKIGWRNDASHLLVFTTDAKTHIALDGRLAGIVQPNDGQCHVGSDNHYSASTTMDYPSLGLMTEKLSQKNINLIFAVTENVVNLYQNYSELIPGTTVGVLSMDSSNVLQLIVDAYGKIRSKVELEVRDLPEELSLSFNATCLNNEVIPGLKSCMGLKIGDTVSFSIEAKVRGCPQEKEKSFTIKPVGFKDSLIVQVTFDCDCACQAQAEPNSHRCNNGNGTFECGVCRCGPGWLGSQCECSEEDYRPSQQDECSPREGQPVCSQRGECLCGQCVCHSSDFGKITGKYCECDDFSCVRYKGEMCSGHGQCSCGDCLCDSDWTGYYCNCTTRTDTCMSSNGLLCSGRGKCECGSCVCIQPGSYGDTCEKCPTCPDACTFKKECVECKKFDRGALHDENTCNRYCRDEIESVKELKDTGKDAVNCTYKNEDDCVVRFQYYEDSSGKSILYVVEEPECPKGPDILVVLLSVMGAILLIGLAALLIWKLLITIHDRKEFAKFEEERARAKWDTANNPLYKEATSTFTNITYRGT
Description: (i) aggregating human, citrated, platelet-rich plasma by addition of adenosine diphosphate so as to generate a dose-response curve;
(ii) generating a dose-response curve for ADP stimulated platelet aggregation in the presence of increasing amounts of a test compound (generally in the range 10-^5 M to 10-^10 M); and
(iii) calculating a pA2 value indicating potency of platelet aggregation inhibition for the test compound, averaged over several concentrations, from the calculated 50% response value for ADP aggregation in the presence and absence of the test compound.

[2] = biological target: T2, purified human platelet fibrinogen receptor (GPIIb/IIIa) (Homo sapiens, UniProt P05106+P08514); assay: Test (b): GPIIb/IIIa ELISA, inhibition of biotinylated fibrinogen binding; conditions: purified human platelet GPIIb/IIIa, ELISA
T2 construct: is isolated from human platelet lysates; from tissue
T2 sequence (P08514 32-887 limits assumed): as the sequence (P08514 32-887 limits assumed) above
T2 sequence (P08514 891-1039 limits assumed): as the sequence (P08514 891-1039 limits assumed) above
T2 sequence (P05106 27-788): as the sequence (P05106 27-788) above
Protocol: (i) Preparation of human platelet lysates.
Platelet rich plasma (PRP) is harvested by centrifugation (1000 rpm, 15 mins) of whole blood anticoaoulated with acid citrate dextrose (trisodium citrate 85 mM, citric acid 70 mM, d-glucose 110 mM) 1 part to 6 parts blood. Prostacyclin (PGI2, 1 μM) is added to the PRP before centrifugation (2400 pm, 15 mins) and the resulting pellet is resuspended in modified Tyrodes' solution (NaCl 130 mM, KCl 26 mM, NaHCO3 12 mM, NaH2 PO4 0.5 mM, MgCl2 1 mM, CaCl2 20 mM, Glucose 12 mM, HEPES 5 mM) containing bovine serum albumin 3.5 g/L, PGI2 1 μM and hirudin 0.5 U/ml. The platelet suspension is centrifuged (2400 rpm, 15 mins) and the resultant pellet resuspended in 500 μl of lysis buffer (octyl glucoside 50 mM, HEPES 10 mM, NaCl 150 mM, CaCl2 1 mM, MgCl2 1 mM, PMSF 1 mM, NEM 10 mM, leupeptin 0.1 mM), agitated at 4° C. for 15 minutes then centrifuged at 24000 rpm, 15 mins. The supernatant is stored at 4° C. and the pellet re-suspended in 500 μl of lysis buffer. The centrifugation process is repeated a further 3 tlimes, the pooled supernatants being stored at -70° C.
(ii) Receptor purification.
GP Ilb/Ila is isolated from human platelet lysates using a 2 ml peptide (KYGRGDS) coupled CNBr activated Sepharose affinity column. A 1.5 ml volume of platelet lysate is placed on the column and allowed to stand overnight at 4° C. Buffer (30 mls, octyl gluicoside 25 mM, HEPES 10 mM, NaCl 150 mM, CaCl2 1 mM, MgCl2 1 mM, PMSF 1 mM, NEM 10 mM, leupeptin 0.1 mM) is passed through the column and 2 ml fractions are collected throughout. GPIIb/IIIa is eluted with 12 mls of buffer containing HHLGGAKQAGDV (2 mg/ml, pH 7.5), the column is washed using 4 mls buffer and the remaining GPIIb/IIIa eluted using 12 mls buffer containing GRGDSPG (1 mg/ml pH 7.5). The column is finally washed using 20 mls of buffer and can be used for up to three such preparations. Fractions containing FGPIIb/IIIa are identified using gel electrophoresis and immunoblotting, pooled and stored at -70° C.
96 well microtitre plates are coated with 100 μl purified human platelet fibrinogen receptor (GPIIb/IIIa) diluted in coating buffer (Tris-HCl 20 mM, NaCl 150 mM, CaCl2 1 mM, pH 7.4) and left overnight at 4° C. The plates are washed using washing buffer (Tris-HCl 50 mM, NaCl 100 mM, CaCl2 2 mM, pH 7.4) and non-specific binding, blocked by the addition of 200 μl 2% BSA (2 hours, 30° C.). The plates are washed prior to incubation (2 hours, 30° C.) with 100 μl biotinylated fibrinogen ([…]) containing either vehicle or test compound. The plates are washed, incubated with streptavidin (5 μg/ml, 1 hour, ambient temperature), then washed again before the addition of 100 μl biotinylated horse radish peroxidase (0.1 μg/ml, 1 hour, ambient temperature). The plates are then washed and equal volumes of peroxidase substrate (3, 5, tetramethyl benzidine 0.4 g/l) and H2 O2 (0.02%) are mixed together immediately before addition of 150 μl to each well. Colour is allowed to develop for 10-15 mins before optical densities are read at 650 nm.
The concentration of compound required to cause 50% inhibition of biotinylated fibrinogen binding, is calculated and expressed as a pIC50 (-log(IC50)).

[3] = read-out: Test (a): pA2 value indicating potency of platelet aggregation inhibition (converted)
[4] = read-out: Test (b): pIC50 (-log(IC50)), 50% inhibition of biotinylated fibrinogen binding to GPIIb/IIIa (converted)

Structure (SMILES) | Kb [1, 3] [µM] | IC50 [2, 4] [nM] | other results
COC(=O)CC(C)NC(=O)c1ccc(N2CCN(c3ccncc3)CC2)cc1 (centres unmarked) [Example 60, Methyl 3-[4-[4-(4-pyridyl)piperazin-1-yl]benzamido]butyrate] | 10 | 15800 | 
O=C(O)[C@H]1CC[C@H](Oc2ccc(N3CCN(c4ccncc4)CC3)cc2)CC1 [Example 231, Trans-4-[4-[4-(4-pyridyl)piperazin-1-yl]phenoxy]cyclohexane carboxylic acid] | 0.2 | 31.6 | 
COC(=O)CNc1ccc(OC(=O)CC2CCN(c3ccncc3)CC2)cc1 [Example 172, 4-Methyloxycarbonylmethylamiophenyl [1-(4-pyridyl)piperidin4-yl]acetate] | 6.31 | 50100 | 
CCCCS(=O)(=O)N[C@@H](Cc1ccc(OCC2CCN(c3ccncc3)CC2)cc1)C(=O)O [Example 34, 2-S-(n-Butylsulphonylamino)-3-[4-[1-(4-pyridyl)piperidin-4-yl]methoxyphenyl]propionic acid] | 0.002 | 2 | 
O=C(O)CCNC(=O)CCCN1CCN(c2ccncc2)CC1 [Example 195, 3-[4-[4-(4-Pyridyl)piperazin-1-yl]butyryl]aminopropionic acid, trifluoroacetate] | 2.51 | 158 | 
CN(CC(=O)O)C(=O)c1ccc(N2CCN(c3ccncc3)CC2)cc1 [Example 189, N-[4-[(4,4Pyridyl)piperazin-1-yl]benzoyl]-N-methylglycine, trifluoroacetate] |  |  | Kb ([1]; Test (a): pA2 value indicating potency of platelet aggregation inhibition): 1.26 µM; IC50 ([2]; Test (b): pIC50 (-log(IC50)), 50% inhibition of biotinylated fibrinogen binding to GPIIb/IIIa): 316 nM
CCCCS(=O)(=O)N[C@H](Cc1ccc(OCC2CCN(c3ccncc3)CC2)cc1)C(=O)O [Example 101] | 0.501 | 31.6 | 
O=C(O)CCNC(=O)c1ccc(N2CCN(c3ccncc3)CC2)cc1 [Example 57, 3-[4-[4-(4-Pyridyl)piperazin-1-yl]]benzamidopropionic acid] | 0.0251 | 25.1 | 
O=C(N[C@@H](Cc1ccccc1)C(=O)O)c1ccc(N2CCN(c3ccncc3)CC2)cc1 [Example 191] | > 100 | 3980 | 
CCCCS(=O)(=O)NC(CC(=O)O)c1ccc(OCC2CCN(c3ccncc3)CC2)cc1 (centres unmarked) [Example 98, 3-(n-Butylsulphonylamino)-3-[4-[1-(4-pyridyl)piperidin-4-yl]methoxyphenyl]propionic acid] |  |  | Test (a): pA2 value indicating potency of platelet aggregation inhibition [1]: 7.6; Test (b): pIC50 (-log(IC50)), 50% inhibition of biotinylated fibrinogen binding to GPIIb/IIIa [2]: 8.5
Cc1ccc(S(=O)(=O)NCCc2ccc(NC(=O)C3CCN(c4ccncc4)CC3)cc2)cc1 [Example 184, N-[2-[4-[1-(4-Pyridyl)piperidin-4-yl]carboxamidophenyl]ethyl]-4-methylphenylsulphonamide] | 5.01 | > 100000 | 
O=C(O)CO[C@@H]1CCN(C(=O)CN2CCN(c3ccncc3)CC2)C[C@H]1OCC(=O)O (relative stereo) [Example 105] | 0.251 | 251 | 
O=C(O)CCCCOc1cccc(N2CCN(c3ccncc3)CC2)c1 [Example 229, 3-[4-(4-Pyridyl)piperazin-1-yl]phenoxypentanoic acid] | 3.98 | 79.4 | 

Now from value to compound, other results behind:

Kb [1, 3] [µM] | IC50 [2, 4] [nM] | Structure (SMILES) | other results
50.1 | 6310 | Cc1cc(N2CCN(CC(=O)c3ccc(OCC(=O)O)cc3)CC2)c2ccccc2n1 [Example 42, 4-[2-[4-(2-Methyl-4-quinolinyl)piperazin-1-yl]acetyl]phenoxyacetic acid] | 
5.01 | 15800 to 39800 | COC(=O)Cc1ccc(C(=O)CN2CCN(c3ccncc3)CC2)cc1 [Example 13, Methyl 4-[2-[4-(4-pyridyl)piperazin-1-yl]acetyl]phenylacetate] | 
7.94 | 15800 | COC(=O)c1cc2cc(C(=O)CN3CCN(c4ccncc4)CC3)ccc2o1 [Example 25, Methyl 5-[2-[4-(4-pyridyl)piperazin-1-yl]acetyl]benzofuran-2-carboxylate] | 
2 | 1000 | O=C(O)CSc1ccc(C(=O)CN2CCN(c3ccncc3)CC2)cc1 [Example 10] | 
12.6 | 3980 | COC(=O)COc1ccc(C(=O)CN2CCN(c3ccncc3)CC2)c2ccccc12 [Example 117] | 
0.501 | 3980 to 6310 | COC(=O)COc1ccc(C(=O)CCN2CCN(c3ccncc3)CC2)cc1 [Example 7, Methyl 4-[3-[4-(4-pyridyl)piperazin-1-yl]propanoyl]phenoxyacetate] | 
10 | 12600 | CC(C)(C)OC(=O)COc1ccc(C(=O)CN2CCN(c3ccncc3)CC2)cc1 [Example 138, tert-Butyl 4-[2-[4-(4-pyridyl)piperazin-1-yl]acetyl]-phenoxyacetate] | 
0.631 | 3980 | COC(=O)COc1ccc(C(=O)CN2CCN(c3ccnc(C)c3)CC2)cc1 [Example 151, Methyl 4-[2-[4-(2-methylpyrid-4-yl)piperazin-1-yl]acetyl]phenoxyacetate] | 
1.58 | 631 | O=C(CN1CCN(c2ccncc2)CC1)c1ccc2oc(C(=O)O)cc2c1 [Example 26, 5-[2-[4-(4-Pyridyl)piperazin-1-yl]acetyl]benzofuran-2-carboxylic acid] | 
15.8 | 3160 | O=C(O)COc1cccc(C(=O)CN2CCN(c3ccncc3)CC2)c1 [Example 126, 3-[2-[4-(4-Pyridyl)piperazin-1-yl]acetyl]phenoxyacetic acid, dihydrochloride] | 
10 | 251 | O=C(O)COc1ccc(C(=O)CN2CCN(c3ccncn3)CC2)cc1 [Example 48, 4-[2-[4-(4-Pyrimidinyl)piperazin-1-yl]acetyl]phenoxyacetic acid] | 
7.94 | > 100000 | CCOC(=O)Cc1ccc(C(=O)CN2CCN(c3ccncc3)CC2)cc1 [Example 14, Ethyl 4-[2-[4-(4-pyridyl)piperazin-1-yl]acetyl]phenylacetate] | 
20 | 20000 | CC(C)(C)OC(=O)COc1ccc(CC(=O)N2CCN(c3ccncc3)CC2)cc1 [Example 149, Tertiary butyl 4-[2-[4-(4-pyridyl)piperazin-1-yl]carbonylmethyl]-phenoxyacetate] | 
1.58 | 200 | Cc1cc(C(=O)CN2CCN(c3ccncc3)CC2)ccc1OCC(=O)O [Example 127, 4-[2-[4-(4-Pyridyl)piperazin-1-yl]acetyl]-2-methyl-phenoxyacetic acid, dihydrochloride] | 
3.98 | 126 | O=C(O)C[C@H](NC(=O)CNC(=O)CN1CCN(c2ccncc2)CC1)C(=O)NCCc1ccccc1 [Example 194, (S)-3-[N-(2-Phenethyl)carboxamido]-3-[N-[N-2-[4-(4-pyridyl)piperazin-1-yl]acetyl]glycyl]aminopropionic acid, trifluoroacetate] | 
